Legend:
Type in all cases: in vitro ADME
[1] = Plasma stability assay, human plasma; details: for Plasma Stability 240 min hum [% remain.]: human plasma, 10 μM, 37° C.
Procedure: (§1) 5. Plasma and Metabolic Stability Assays Example compounds were dissolved in DMSO/H2O 90:10 to a final concentration of 10 mM for plasma stability determination and metabolic stability determination. The assays were conducted according to literature precedents (F. P. Guengerich, Analysis and Characterization of Enzymes; in: Principles and Methods of Toxicology, A. W. Hayes (Ed.) Raven Press: New York, 1989, 777-813; R. Singh et al., In vitro metabolism of a potent HIV-protease inhibitor (141W94) using rat, monkey and human liver S9, Rapid Commun. Mass Spectrom. 1996, 10, 1019-1026). Plasma Stability Assay Human plasma (Blutspendedienst SRK, Basel) and CD-1 mouse plasma (mixed gender pool >50 animals, Innovative Research, Calif., USA) are both sodium citrate stabilized. The assay is performed in triplicates at 10 μM compound concentration and 37° C. Samples are taken at 0, 15, 30, 60, 120 and 240 minutes and stopped by precipitation with 3 volumes of acetonitrile/formic acid 98:2 and shaking (2 minutes, 600 rpm) followed by filtration (−20 mm Hg). The filtrate is collected. The filtrate (100 μL) is evaporated and reconstituted in the suitable solvent (cf. Table 33) to be analyzed by HPLC/MS/MS. The resulting peak area counts are expressed in percent of the 0 value and used to determine the endpoint stability in % and the half life T in minutes. In order to monitor assay integrity the degradation of propantheline is assayed with every experimental set.

[2] = Plasma stability assay, CD-1 mouse plasma; details: for Plasma Stability 240 min mouse/(rat) [% remain.]: CD-1 mouse plasma, 10 μM, 37° C.; for half-life at 10 μM: both sexes, CD-1, mouse
Procedure: as §1

[3] = Metabolic stability assay, human liver microsomes; details: for half-life at 10 μM: both sexes, liver microsomes, 1 mg/ml protein, read-out: Metabolic Stability T ½ [min] hum; for half-life at 10 μM / Metabolic Stability 60 min hum [% remain.]: human microsomes, 37° C., 10 μM
Procedure: (§2) 5. Plasma and Metabolic Stability Assays
(§3) Example compounds were dissolved in DMSO/H2O 90:10 to a final concentration of 10 mM for plasma stability determination and metabolic stability determination.
(§4) The assays were conducted according to literature precedents (F. P. Guengerich, Analysis and Characterization of Enzymes; in: Principles and Methods of Toxicology, A. W. Hayes (Ed.) Raven Press: New York, 1989, 777-813; R. Singh et al., In vitro metabolism of a potent HIV-protease inhibitor (141W94) using rat, monkey and human liver S9, Rapid Commun. Mass Spectrom. 1996, 10, 1019-1026).
(§5) Metabolic Stability Assay
(§6) Microsomes from a human 50 donor mixed gender pool and 1:1 mixtures of microsomes from CD-1 mouse single-gender pools are purchased from Celsis (Belgium). The enzymatic reaction is performed in a buffer containing an NADPH regeneration system and microsomes with the following end concentrations: 100 mM potassium phosphate buffer (all from Sigma), 1 mg/mL glucose-6-phosphate, 1 mg/mL β-nicotinamide adenine dinucleotide phosphate (NADP), 0.65 mg/mL magnesium chloride, 0.8 units/mL of glucose-6-phosphate dehydrogenase (prediluted with 5 mM citrate buffer), 10 μM compound and 1 mg/ml microsomal protein. Compounds are incubated at 37° C. in duplicates and samples are taken after 0, 5, 10, 20 and 60 minutes. After acetonitrile precipitation (3 volumes), shaking (2 minutes, 600 rpm) followed by centrifugation (10 minutes, 3200 g), the supernatant is dried reconstituted in the suitable solvent (cf. Table 33) and analyzed by HPLC/MS/MS. Metabolic turnover is expressed in % of the initial 0 minutes value and half life T½ (min) is calculated. Verapamil for human and propranolol for mouse are used as reference and are assayed with every experimental set.

[4] = Metabolic stability assay, CD-1 mouse microsomes; details: for Metabolic Stability 60 min mouse/(rat) [% remain.] / half-life at 10 μM: CD-1 mouse microsomes, 10 μM, 37° C.; for half-life at 10 μM: both sexes, 1 mg/ml protein, read-out: Metabolic Stability T ½ [min] mouse/(rat)
Procedure: as §2, §3, §4, §5, §6

SMILES	Plasma Stability 240 min hum [% remain.] [1] [% remain.]	half-life at 10 μM ([1]; human, plasma) [h]	Plasma Stability 240 min mouse/(rat) [% remain.] [2] [% remain.]	half-life at 10 μM ([2]; plasma) [h]	half-life at 10 μM [3] [min]	Metabolic Stability 60 min hum [% remain.] [3] [% remain.]	Metabolic Stability 60 min mouse/(rat) [% remain.] [4] [% remain.]	half-life at 10 μM [4] [min]	Plasma Stability T ½ [min] hum ([1]; human, plasma) [min]	Plasma Stability T ½ [min] mouse/(rat) ([2]; plasma) [min]	Metabolic Stability T ½ [min] hum ([3]; human, microsomes) [min]	Metabolic Stability T ½ [min] mouse/(rat) ([4]; microsomes) [min]
COc1ccc2c(c1)-c1cccc(c1)C(=O)N(C)[C@H](C(=O)NCC(=O)O)CCC(=O)N[C@H](C)CO2 [Ex. 57, 2-({[(10R,15S)-4-methoxy-10,16-dimethyl-12,17-dioxo-8-oxa-11,16-diazatricyclo[16.3.1.0^2,7]docosa-1(22),2,4,6,18,20-hexaen-15-yl]carbonyl}amino)acetic acid]	100	> 4	74	> 4	> 60	100	100	> 60	–	–	–	–
COc1ccc2c(c1)-c1cccc(c1)C(=O)N(C)[C@H](C(=O)N(C)CCN(C)C)CCC(=O)N[C@H](C)CO2 [Ex. 59, (10R15S)-N-[2-(dimethylamino)ethyl]-4-methoxy-N,10,16-trimethyl-12,17-dioxo-8-oxa-11,16-diazatricyclo[16.3.1.0^2,7]docosa-1(22),2,4,6,18,20-hexaene-15-carboxamide]	–	–	–	–	–	–	–	–	>240	>240	>60	>60
C[C@H]1COc2cccc(c2)-c2cccc(c2)C(=O)N(C)[C@H](C(=O)Nc2ccccc2)CCC(=O)N1 [Ex. 72, (9S,14S)-9,15-dimethyl-11,16-dioxo-N-phenyl-7-oxa-10,15-diazatricyclo[15.3.1.1^2,6] docosa-1(21),2(22),3,5,17,19-hexaene-14-carboxamide]	100	> 4	65	> 4	22	14	30	35	–	–	–	–
C[C@H]1COc2cccc(c2)-c2cccc(c2)C(=O)N(C)[C@H](C(=O)NCc2cccc3ccccc23)CCC(=O)N1 [Ex. 74, (9S,14S)-9,15-dimethyl-N-(1-naphthylmethyl)-11,16-dioxo-7-oxa-10,15-diazatricyclo[15.3.1.1^2,6]docosa-1(21),2(22),3,5,17,19-hexaene-14-carboxamide]	100	> 4	67	> 4	7	1	0	3	–	–	–	–
C[C@H]1COc2cccc(c2)-c2cccc(c2)C(=O)N(C)[C@H](C(=O)NCc2cccnc2)CCC(=O)N1 [Ex. 75, (9S,14S)-9,15-dimethyl-11,16-dioxo-N-(3-pyridinylmethyl)-7-oxa-10,15-diazatricyclo[15.3.1.1^2,6]docosa-1(21),2(22),3,5,17,19-hexaene-14-carboxamide]	93	> 4	55	> 4	21	12	48	53	–	–	–	–
COCCNC(=O)[C@@H]1CCC(=O)N[C@@H](C)COc2cccc(c2)-c2cccc(c2)C(=O)N1C [Ex. 77, (9S,14S)-N-(2-methoxyethyl)-9,15-dimethyl-11,16-dioxo-7-oxa-10,15-diazatricyclo[15.3.1.1^2,6]docosa-1(21),2(22),3,5,17,19-hexaene-14-carboxamide]	96	> 4	85	> 4	44	41	75	> 60	–	–	–	–
C[C@H]1COc2cccc(c2)-c2cccc(c2)C(=O)N(C)[C@H](C(=O)NCC(F)(F)F)CCC(=O)N1 [Ex. 78, (9S,14S)-9,15-dimethyl-11,16-dioxo-N-(2,2,2-trifluoroethyl)-7-oxa-10,15-diazatricyclo[15.3.1.1^2,6]docosa-1(21),2(22),3,5,17,19-hexaene-14-carboxamide]	100	> 4	86	> 4	> 60	99	92	> 60	–	–	–	–

Now from value to compound:

Plasma Stability 240 min hum [% remain.] [1] [% remain.]	half-life at 10 μM ([1]; human, plasma) [h]	Plasma Stability 240 min mouse/(rat) [% remain.] [2] [% remain.]	half-life at 10 μM ([2]; plasma) [h]	half-life at 10 μM [3] [min]	Metabolic Stability 60 min hum [% remain.] [3] [% remain.]	Metabolic Stability 60 min mouse/(rat) [% remain.] [4] [% remain.]	half-life at 10 μM [4] [min]	Plasma Stability T ½ [min] hum ([1]; human, plasma) [min]	Plasma Stability T ½ [min] mouse/(rat) ([2]; plasma) [min]	Metabolic Stability T ½ [min] hum ([3]; human, microsomes) [min]	Metabolic Stability T ½ [min] mouse/(rat) ([4]; microsomes) [min]	SMILES
91	> 4	45	3.33	> 60	100	100	> 60	–	–	–	–	C[C@H]1COc2cccc(c2)-c2cccc(c2)C(=O)N(C)[C@H](C(=O)O)CCC(=O)N1 [Ex. 69, (9S,14S)-9,15-dimethyl-11,16-dioxo-7-oxa-10,15-diazatricyclo[15.3.1.1^2,6]docosa-1(21),2(22),3,5,17,19-hexaene-14-carboxylic acid]
99	> 4	61	> 4	> 60	100	77	> 60	–	–	–	–	CNC(=O)[C@@H]1CCC(=O)N[C@@H](C)COc2cccc(c2)-c2cccc(c2)C(=O)N1C [Ex. 70, (9S,14S)-N,9,15-trimethyl-11,16-dioxo-7-oxa-10,15-diazatricyclo[15.3.1.1^2,6]docosa-1(21),2(22),3,5,17,19-hexaene-14-carboxamide]
100	> 4	92	> 4	> 60	100	89	> 60	–	–	–	–	C[C@H]1COc2cccc(c2)-c2cccc(c2)C(=O)N(C)[C@H](C(N)=O)CCC(=O)N1 [Ex. 71, (9S,14S)-9,15-dimethyl-11,16-dioxo-7-oxa-10,15-diazatricyclo[15.3.1.1^2,6]docosa-1(21),2(22),3,5,17,19-hexaene-14-carboxamide]
100	> 4	60	> 4	> 60	95	73	> 60	–	–	–	–	C[C@H]1COc2cccc(c2)-c2cccc(c2)C(=O)N(C)[C@H](C(=O)NC2CC2)CCC(=O)N1 [Ex. 79, (9S,14S)-N-cyclopropyl-9,15-dimethyl-11,16-dioxo-7-oxa-10,15-diazatricyclo[15.3.1.1^2,6]docosa-1(21),2(22),3,5,17,19-hexaene-14-carboxamide]

— patent US10017481B2, “Conformationally constrained, fully synthetic macrocyclic compounds” (POLYPHOR AG, priority 2012, dated 2018)
